PMC8457910 (Bioorganic Chemistry, 2021)
“And” between values parts separate entries of the source, which are not always exact repeats. Equal values may be shown once.

Biological target: NusA-5HB (Severe acute respiratory syndrome coronavirus 2, UniProt P0DTC2)
Experiment: Competitive FP assays of small molecules
Format: binding, SARS-CoV-2
Conditions: IC50, 8 nM NusA-5HB, 5 nM HR2P-FL, 4% DMSO

Row | Structure (SMILES) | IC50
1 | O=C(/C=C/c1ccc(O)c(O)c1/C=C/c1ccc(O)c(O)c1)O[C@H](Cc1ccc(O)c(O)c1)C(=O)O [Sal-A, Salvianolic acid A] | 3.9 µM and ~3.9 µM
2 | O=C(O)/C=C/c1ccc(O)c(O)c1 [caffeic acid, Caffeic acid] | 638 µM and ~638 µM
